What was measured:
human subjects = test: Gastrointestinal tolerance study of iced cupcakes (Test Protocol 1; randomized, double-blind, crossover); type: in vivo; conditions: after 24 hours; compared to SWEETENER 1
From the text: In many embodiments, the sweetener compositions of the invention have improved gastrointestinal tolerance in humans. For example, the sweetener compositions of the invention have improved gastrointestinal tolerance as compared to maltitol. Gastrointestinal tolerance can be measured, for example, using a randomized, double blind, crossover, repeated measure design protocol, such described in Test Protocol 1 in the Example section of the application. In a representative test, a test food comprising a sweetener to be tested is consumed by human subjects, and the subjects are required to complete a gastrointestinal survey at various intervals, prior to and after, consuming the test food. For example, the human subject may complete the survey at 0 hours (i.e., just prior to consuming the test food), 2 hours, 6 hours, 12 hours, and 24 hours after consuming the test food. The food is then rated at the various time periods for gastrointestinal tolerance as evidenced by gastrointestinal effects such as gastrointestinal rumbling, abdominal cramping, gas/bloating, excessive flatulence, loose stools, and diarrhea. […]
The study used a randomized, double-blind, crossover, repeated measure design. […] Diarrhea was recorded as a yes/no response. […]

[1] = in vivo; cited from earlier work

Row | SMILES | abdominal cramping (human subjects) | fraction absorbed in the small intestine and excreted unchanged in the urine [1]
1 | OC[C@@H](O)[C@@H](O[C@H]1O[C@H](CO)[C@@H](O)[C@H](O)[C@H]1O)[C@H](O)[C@@H](O)CO [COMP. SWEETENER A, Maltitol] | Significantly milder | –
2 | OC[C@@H](O)[C@@H](O)CO [Erythritol] | – | about 90%

— patent US20100112174A1, “LOW CALORIE SWEETENER COMPOSITIONS” (CARGILL, INCORPORATED, priority 2006, published 2010)
